Test results as given in ChEMBL document CHEMBL3864127, “Janadolide, a Cyclic Polyketide-Peptide Hybrid Possessing a tert-Butyl Group from an Okeania sp. Marine Cyanobacterium” (J Nat Prod, 2016).

How the values were obtained:
[1] = Cytotoxicity against human HeLa cells assessed as cell growth inhibition at 10 uM after 72 hrs by MTT assay; format: toxicity, cell-based
[2] = tested on: Trypanosoma brucei brucei; experiment: Antitrypanosomal activity against bloodstream form of Trypanosoma brucei brucei GUTat 3.1 after 72 hrs by Alamar blue assay; format: functional; details: GUTat 3.1, 72 h
[3] = Cytotoxicity against human HL60 cells assessed as cell growth inhibition at 10 uM after 72 hrs by MTT assay; format: toxicity, cell-based; details: hl-60, 72 h
[4] = Cytotoxicity against human MRC5 cells assessed as cell growth inhibition at 10 uM after 7 days by MTT assay; format: toxicity, cell-based; details: mrc5, 168 h

Structure (SMILES)	Activity [1]	IC50 [2]	Activity [3]	Activity [4]
C/C1=C\[C@@H](C(C)(C)C)OC(=O)[C@H](CC(C)C)N(C)C(=O)[C@H](C)N(C)C(=O)CNC(=O)[C@H](C(C)C)NC(=O)[C@@H]2CCCN2C(=O)[C@H](C)CC1	Non-Toxic	47 nM	Non-Toxic	Non-Toxic
Cc1ccc(C(=O)Nc2ccc(S(=O)(=O)O)c3cc(S(=O)(=O)O)cc(S(=O)(=O)O)c23)cc1NC(=O)c1cccc(NC(=O)Nc2cccc(C(=O)Nc3cc(C(=O)Nc4ccc(S(=O)(=O)O)c5cc(S(=O)(=O)O)cc(S(=O)(=O)O)c45)ccc3C)c2)c1 [SURAMIN]	–	1200 nM	–	–
